Molecule `Cn1ncnc1COc1nc2c(-c3ccccc3)nncc2cc1-c1ccccc1` [Example 1, 3,8-Diphenyl-2-(2-methyl-2H-[1,2,4]triazol-3-ylmethoxy)pyrido[2,3-d]pyridazine] came in with a melting point of 222 to 223 °C.

For orientation: melting point means the temperature, or range, at which the solid turns liquid.

(Values after US6593325B1, “Pyrido-pyridazine derivatives as ligands for GABA receptors” (Merck Sharp & Dohme Ltd., priority 1999, dated 2003).)
